Patent publication US20080026474A1, “ASSAY FOR DIFFERENTIATING COMPOUNDS THAT MODULATE THE EXTRINSIC AND/OR INTRINSIC COAGULATION PATHWAYS” (Bristol-Myers Squibb Company, priority 2006, published 2008)
“Also recorded” adds a separate entry of the source.

What was measured:
[1] = test system: TF-induced platelet aggregation in human platelet-rich plasma; assay: TF-induced platelet aggregation assay (time delay / lag time) in human platelet-rich plasma; format: cell-based; conditions: human PRP; for time delay of platelet aggregation: 0 μM = 75 seconds; for 2×Base value (concentration required to double the time for TF-induced platelet aggregation): time delay of TF-induced platelet aggregation
Description: The remaining samples were then centrifuged at […] for 10 min to obtain platelet-poor plasma (PPP). Platelet count was adjusted to 2-2.5×10^8 cells/ml with platelet-poor plasma.
PRP (275 μl) sample was briefly mixed with 25 μl of 36 mg/ml pefabloc. Various compounds (in a volume of 1.2 μl) were added and incubated at 37° C. for 3 min in a cylindrical glass cuvette. Platelet aggregation was induced by 4 μl of Innovin®-CaCl2 mixture and measured under continuous stirring at 1000 rpm in a PA-200 platelet aggregation analyzer (Kowa, Tokyo, Japan). Platelet-poor plasma was used as a reference. Platelet aggregation curves defined by changes in light transmission over time were recorded for 15 min. The lag time was defined as the time from CaCl2 addition until the light transmittance reached 1%. The concentration of Innovin® and CaCl2 was adjusted for each sample so that the average control lag time was from 50 to 70 seconds.

[2] = test system: thrombus formation in carotid artery; assay: Rabbit ECAT model; format: in vivo; conditions: i.v. infusion, drug concentration maintaining total blood flow at 80% of baseline
Description: Briefly, male, New Zealand, white rabbits were anesthetized with ketamine (50 mg/kg+50 mg/kg/h i.m.) and xylazine (10 mg/kg+10 mg/kg/h i.m.). These anesthetics were supplemented as needed. An electromagnetic flow probe was placed on a segment of an isolated carotid artery to monitor blood flow. Thrombus formation was induced by electrical stimulation of the carotid artery for 3 min at 4 mA using an external stainless steel bipolar electrode. […] Plasma concentrations were determined in blood samples taken at the end of the experiment by liquid chromatography-tandem mass spectrometry.
Carotid blood flow was measured continuously over the 90-min period of thrombus formation and total carotid blood flow was calculated as an area under the carotid blood flow-time curve. Preservation of total CBF relative to sustained baseline flow was used to assess antithrombotic activity. The drug concentrations which maintained total blood flow at 80% of baseline (ED80) was the common comparator among antithrombotic agents.

| SMILES | effect on the time delay of TF-induced platelet aggregation (in words) [1] | ED80 [2] | 2×Base value (concentration required to double the time for TF-induced platelet aggregation) [1] | further results |
| --- | --- | --- | --- | --- |
| NCc1ccccc1-n1nc(C(F)(F)F)cc1C(=O)Nc1ccc(-c2ccccc2S(N)(=O)=O)cc1F [1-(2-aminomethylphenyl)-3-trifluoromethyl-N-[3-fluoro-2′-(aminosulfonyl)[1,1′-biphenyl)]-4-yl]-1H-pyrazole-5-carboxyamide] | dose-dependent effects |  |  |  |
| COc1cc([C@@H]2Nc3ccc(C(=N)N)cc3[C@H]3c4ccccc4C[C@H]32)c(-c2ccc(C(=O)O)cc2)cc1O [Compound A, 2′-((6R,6aR,11bR)-2-Carbamimidoyl-5,6a,7,11b-tetrahydro-6H-indeno[2,1-c]quinolin-6-yl)-5′-hydroxy-4′-methoxy-biphenyl-4-carboxylic acid] | concentration-dependent effect; also recorded: Dose-dependent effect | 1100 nM | 1.25 µM | time delay of platelet aggregation ([1]; 1.26 μM): 175 s; time delay of platelet aggregation ([1]; 4.0 μM): 286 s; time delay of platelet aggregation ([1]; 12.6 μM): 671 s; time delay of platelet aggregation ([1]; 25.2 μM): 865 s |
| CS(=O)(=O)c1ccccc1-c1ccc(NC(=O)c2cc(C(F)(F)F)nn2-c2cccc(CN)c2)c(F)c1 [Compound B, 1-[3-(aminomethyl)phenyl]-N-[3-fluoro-2′-(methylsulfonyl)[1,1′-biphenyl]-4-yl]-3-(trifluoromethyl)-1H-pyrazole-5-carboxamide] |  | 400 nM |  |  |
| CC(C)CC(=O)Nc1cc(-c2ccc(C(N)=O)cc2C(=O)O)cc([C@@H]2C[C@](C)(c3ccccc3)c3cc(C(=N)N)ccc3N2)c1 [Compound C, 3′-((2S,4R)-6-Carbamimidoyl-4-methyl-4-phenyl-1,2,3,4-tetrahydro-quinolin-2-yl)-4-carbamoyl-5′-(3-methyl-butyrylamino)-biphenyl-2-carboxylic acid] | barely showed any effect; also recorded: No effect | 800 nM | 26 µM | effect on TF-induced platelet aggregation at high dose (in words) ([1]; 40 μM): weak efficacy |
| CC(C)(C)c1ccccc1Oc1ncccc1NC(=O)Nc1ccc(OC(F)(F)F)cc1 [Compound F, 1-[2-(2-tert-Butyl-phenoxy)-pyridin-3-yl]-3-(4-trifluoromethoxy-phenyl)-urea] | no effect |  | ~0 µM |  |
| CNc1ncnc2c1ncn2[C@H]1C[C@H](OP(=O)(O)O)[C@@H](COP(=O)(O)O)O1 [N6-methyl-2′-deoxyadenosine-3′,5′-bisphosphate, reference compound] | no effect |  |  |  |
| CSCCNc1nc(SCCC(F)(F)F)nc2c1ncn2[C@@H]1O[C@H](COP(=O)(O)OP(=O)(O)C(Cl)(Cl)P(=O)(O)O)[C@@H](O)[C@H]1O [cangrelor, reference compound] | no effect |  |  |  |
